The test system of one data set is Ls174T cells. As to the kind of experiment: Clonal spheroid assay, Ls174T. It counts as cell-based, human. The following applies: Ls174T pretreated at 5µM; after three passes. Here is the method: (§1) Cells were treated with different concentrations of compounds for 16h in 2D adherent culture, washed, harvested and plated in suspension with serum-free DMEM-F12 media with B27 supplement (1:50 dilution) at 1 cell/well in 96-well format in triplicates. Plated cells were monitored to ensure the presence of single cells in each well and spheroids counted and photographed after 10 days for each round.
(§2) To directly test for a long-lasting repression of WNT-TCF targets by CAP2 clonogenic properties of cancer stem cells were tested. DLD1 and LS174T cells were first treated with CAP2 in 2D culture in vitro followed by removal of the drug, washing with PBS, and plating under non-adherent 3D conditions for clonal spheroid growth in the absence of the drug. After primary spheroid growth, the spheroids were dissociated and replated as single cells for secondary and subsequent clonogenic spheroid formation, also in the absence of the compound of the invention. As negative control DMSO-treatment was used.

The next data set has as its system DLD1 cells. The experiment in a line: Clonal spheroid assay, DLD1. It counts as cell-based, human. Particulars: DLD1 pretreated in 2D; normalized over DMSO controls (Figure 11A). Here is the method:
as §1, §2

Another data set relates to CYCLIN D1. As to the kind of experiment: Western blot of CYCLIN D1 in DLD1 cells. It counts as cell-based, human. Particulars: 5 µM CAP2 (batch 3), vs DMSO. On the procedure:
Western blot performed according to standard methods.
The effect of CAP2 on WNT-TCF signaling the levels of direct TCF target CYCLIN D1 were measured since it is useful to measure TCF response (Melotti et al., 2014, sura).
A general note: In western blotting, separated proteins are transferred to a membrane and probed.

A further data set has as its system DLD1 xenografts. The experiment in a line: DLD1 colon cancer xenograft in Nude mice. Format: in vivo. Here is the method: 0.5x10^6 DLD1/ GFP^+ (cells expressing green fluorescent protein) cells were injected per flanks into 6 week-old female Nude mice (Janvier Labs). CAP2 (10mg/kg) complexed with cyclodextrine as vehicle, or vehicle alone, were injected daily intra-peritoneally (IP) once the tumors were palpable (25-50 mm^3). Tumor volumes were measured every other day with a caliper. Animals were sacrificed at the end of experiment and tumors harvested.
CAP2 from four independent batches supplied by Analyticon Discovery was dissolved in DMSO and suspended in 45% beta-cyclodextrin. 45% beta-cyclodextrin was used as vehicle for controls. 150µl of drug or vehicle alone was administered per mouse daily.
GFP^+ DLD1-engrafted mice were treated with cyclodextrin-conjugated CAP2 at 10mg/kg via IP […] starting at the time when tumors were palpable. […] Analyses of gene expression using human-specific primers in treated tumors (using the excised area where remnant DLD-GFP^+ cells could be found) confirmed the repression of human AXIN2, ASCL2 and LGR5 (Table 11).

For data set [1], the system named is CC14 cells. As to the kind of experiment: Live imaging cell proliferation (growth curves). It counts as cell-based, human. Particulars: 150 nM, vs DMSO. Here is the method:
Primary colon cells CC14 were cultured in DMEM-F12 with 10% FBS under standard in vitro conditions.
Live imaging and quantification of total cell mass was performed using a Widefield plate reader, ImageXpress XL with an inbuilt temperature and CO2 controller, and a CoolSnap HQ camera (Photometrics).

Data set [2] concerns CC14 cells. As to the kind of experiment: Epithelial island morphology of CC14 cells. Format: cell-based, human. The following applies: 1 µM, 24h. Here is the method:
Similar phenotypes were only observed at 10 µM of CAP1 or 5 µM of CAP3. CAP2 was thus chosen for further detailed analyses.

Consider `CC1=C(C)C(=O)O[C@@H]([C@](C)(O)[C@]2(O)CC[C@@]3(O)[C@@H]4CC=C5C=CCC(=O)[C@]5(C)[C@H]4CC[C@]23C)C1` [CAP2], for which the “clonogenic cancer stem cells in serial spheroid assays” value with Ls174T cells is given as “exhaustion of clonogenic cancer stem cells”. Also, the “primary 3D clonal spheroids” value in the data set on DLD1 cells is listed as “dose-dependent decrease in primary spheroids”. For the same compound, in the data set on CYCLIN D1, the “level of CYCLIN D1 (Western blot)” value was “decrease in the level of TCF target CYCLIN D1”. Further, in the data set on DLD1 xenografts (DLD1 xenograft, Nude mice, 10mg/kg IP), the side effects entry is “without any visible side effects”. In addition, the tumor growth result in the data set on DLD1 xenografts (DLD1 xenograft, Nude mice, cyclodextrin-conjugated CAP2 10mg/kg IP, vs cyclodextrin carrier) is “blockade of tumor growth”. For the same compound, in the data set on DLD1 xenografts (four DLD1 regressed tumors, 90 days following drug removal), the “number of regressed tumors that re-grew” value is reported as “one”. In addition, in the data set with CC14 cells [1], the “effect on cell growth (growth curves)” value is recorded as “growth repressive effect”. In addition, the epithelial island morphology entry in the data set on CC14 cells [2] is reported as “totally disrupted”.
